Assays:
[1] = REE(III)-HCl-EHEHPA system; cited from earlier work
[2] = 1H NMR titration, binding constants for La complexes; conditions: 1 M DNO3
From the text: Complexation of 1 with lanthanides was further assessed using nuclear magnetic resonance (NMR) spectroscopy. […] As the concentration of La increases (top to bottom), a downfield shift of ˜1.1 ppm occurs in the most downfield aromatic ^1H of 1, confirming complex formation. […] For 1 alone, some heterogeneity and broadening in the peak structure is observed, which can be attributed to aggregate formation. While the ethylene glycol units solubilize 1, the hydrophobic cores still cluster together to form aggregate structures (vide infra). As the La concentration increases, it disrupts these clusters and stabilizes 1-La units. The change in chemical shift of the most downfield aromatic ^1H was used to assess binding constants for La complexes with 1 in 1 M DNO3. The results were fitted using commercial software to yield binding constants of K1>10^2 M^−1 and K2>>10^5 M^−1 for the 1:1 and 2:1 ligand to metal binding modes, respectively. […] In the Lu titration, some downfield shift was observed, but the peaks became increasingly heterogenous and broad. This may be attributed to poor binding affinity where transient interactions occur, but no stable structure was formed, which was consistent with the selectivity data presented above.

Solubility = type: physicochemical
From the text: The solubility of 1 in 0.9 M nitric acid (HNO3) is >0.2 M. The three DGAs selected for this study were: N,N′-dimethyl-N,N′-di(n-octyl)diglycolamide (DMDODGA, 3), N,N,N′,N′-tetra(n-octyl)diglycolamide (TODGA, 4), and N,N-didodecyl-2-((1-hexyl-2-oxopiperidin-3-yl)oxy)acetamide (DDHPA, 5), whose structures are shown above. […] However, they differ in terms of binding affinity for lanthanides in the order 3>4>5. The stability of DGA-Ln complexes is affected by the size of N-alkyl substituents on the DGA ligand; larger substituents tend to obstruct the metal ion binding site that is decorated with three oxygen donor groups, resulting in diminished affinity for Lns with lower effective nuclear charge. Ligand 2, with unconstrained amide groups, was synthesized as a control substrate.
However, its performance in separating Lns is very different.

[3] = SAXS, radius of gyration of aggregates in solution; type: physicochemical
Experimental: The mesoscale structure of 1 and 1-Pr complexes in the aqueous solution and the local coordination environment around Pr in the 1-Pr structure were investigated using small-angle X-ray scattering (SAXS) and extended X-ray absorption fine structure (EXAFS) spectroscopy at the Pr L3 edge, respectively. In the absence of Pr, 13 mM of 1 in 1 M HNO3 forms large aggregates with a radius of gyration (Rg) of ˜15 A, as represented by the steepest slope in FIG. 5a. The addition of smaller amounts of Pr (2.5 mM) reduces the aggregate size in solution by ˜5 A.
Under conditions where 1 is expected to be fully coordinated with Pr (assuming the formation of [Pr-(1)2(NO3)3], when [Pr]=7.5 mM), the aggregates further reduce in size (Rg=6.7 A). This is consistent with the trends seen in the NMR data above. In addition, variable temperature NMR was taken of 1 without and with Pr. At elevated temperatures (up to 313 K), the spectral quality of 1 degrades dramatically and is irreversible, which is indicative of additional aggregate formation in solution. In the presence of Pr, however, the ^1H chemical shifts representing 1 remain unchanged and the peaks narrow due to increased molecular motion.

[4] = Extraction of 14 Lns from aqueous phase into oil phase
Experimental: (§1) General procedure: a 500 microliter (μL) aqueous phase consisting of 7 mM Ln(III) (0.5 mM of each Ln(III)) in 1 M HNO3 without or with aqBLPhen 1 (3, 13, or 25 mM) was contacted with an equal volume of organic phase containing 0.1 M DGA (3, 4, or 5). The two phases were contacted in a 1:1 ratio of organic/aqueous by end-over-end rotation in individual 1.8 mL capacity snap-top Eppendorf tubes using a rotating wheel in an airbox set at 25.5±0.5° C. Contacts were performed in triplicate with a contact time of 1 hour. The samples were centrifuged at 1811 g for 2 min at room temperature to separate the phases. Each triplicate was then sub-sampled, using a 300 μL aliquot of the aqueous phase transferred to individual polypropylene tubes and diluted with 2% HNO3 for analysis using ICP-MS or ICP-OES. Two samples of the initial lanthanide solution were similarly prepared.
(§2) The ability of 1 and DGA to separate Lns was evaluated using a two-component, immiscible solvent system: nitric acid (aqueous phase containing 1) and n-dodecane with 10 vol % 1-octanol (oil phase containing DGA). The amount of Ln partitioned from the aqueous phase into the oil phase was measured using inductively coupled plasma optical emission spectroscopy or mass spectrometry. The Ln concentration in each phase was then used to calculate the separation efficiency.
(§3) The percentage of Lns in the aqueous and the oil phases is presented in FIGS. 1a-1i. for each DGA in the absence and presence of the aqueous complexant 1 (E=([Ln1]/[Ln1]0)×100%). The distribution ratios (i.e., D=[Ln1]org/[Ln1]aq) for select Lns are listed in Table 1, which also include selectivities (i.e., SFLn1/Ln2=DLn1/DLn2), for several Ln pairs. An efficient separation of Lns was achieved when DLn1>1 and DLn2<1 or ELn1>50% and ELn2<50%. […] Neither of the three DGAs can separate Lns in a single extraction stage.

[5] = Solvent extraction of Lns, separation factor Tb/Gd; conditions: 0.1 M DGA, 1 M HNO3, 1 h
Experimental: as §1, §2, §3

[6] = Solvent extraction of Lns, distribution ratio of La; conditions: 1 M HNO3, 1 h
Experimental: as §1, §2, §3

[7] = Solvent extraction of Lns, distribution ratio of Gd; conditions: 0.1 M DGA, 1 M HNO3, 1 h
Experimental: as §1, §2, §3

[8] = Solvent extraction of Lns, distribution ratio of Sm; conditions: 0.1 M DGA, 1 M HNO3, 1 h
Experimental: as §1, §2, §3

[9] = Solvent extraction of Lns, separation factor Nd/Pr; conditions: 0.1 M DGA, 1 M HNO3, 1 h
Experimental: as §1, §2, §3

[10] = Solvent extraction of Lns, separation factor Sm/Nd; conditions: 0.1 M DGA, 1 M HNO3, 1 h
Experimental: as §1, §2, §3

[11] = Solvent extraction of Lns, distribution ratio of Nd; conditions: 0.1 M DGA, 1 M HNO3, 1 h
Experimental: as §1, §2, §3

[12] = Solvent extraction of Lns, separation factor Dy/Nd; conditions: 0.1 M DGA, 1 M HNO3, 1 h
Experimental: as §1, §2, §3

[13] = Solvent extraction of Lns, separation factor Gd/La; conditions: 0.1 M DGA, 1 M HNO3, 1 h
Experimental: as §1, §2, §3

[14] = [1] 0 mM, 0.1 M DGA in n-dodecane with 10 vol % 1-octanol, 0.5 mM each Ln

CCCCC(CC)COP(=O)(O)CC(CC)CCCC (stereo not shown) [EHEHPA, 2-ethylhexylphosphonic acid mono-(2-ethylhexyl) ester]
selectivity for Nd over Pr [1]: 1.17

O=c1[nH]c(COCCO)c(COCCO)c2cc3ccc4cc5c(COCCO)c(COCCO)[nH]c(=O)c5nc4c3nc12 [Ligand 1, 3,4,9,10-tetrakis((2-hydroxyethoxy)methyl)-2,11-dihydrodipyrido[3,4-b:4′,3′-j]1,10 phenanthroline-1,12-dione]
binding constant K1 (1:1 ligand to metal) [2]: > 10^2 M^−1 | binding constant K2 (2:1 ligand to metal) [2]: > 10^5 M^−1 | solubility (Solubility; aqueous buffer, in 0.9 M nitric acid (HNO3)): > 200 mM | reduction of aggregate size ([3]; 13 mM of 1, Pr 2.5 mM): ~5 A | radius of gyration (Rg) of aggregates ([3]; 13 mM of 1, [Pr]=7.5 mM): 6.7 A | radius of gyration (Rg) of aggregates ([3]; 13 mM of 1 in 1 M HNO3, absence of Pr): ~15 A

O=C(c1ccc2ccc3ccc(C(=O)N(CCOCCO)CCOCCO)nc3c2n1)N(CCOCCO)CCOCCO [Ligand 2]
aqueous solubility (Solubility; aqueous): excellent aqueous solubility | affinity for light lanthanides as aqueous complexant ([4]; 13 mM in aqueous phase, FIG. 2): limited affinity for light lanthanides

CCCCCCCCN(CCCCCCCC)C(=O)COCC(=O)N(CCCCCCCC)CCCCCCCC [Ligand 4, N,N,N′,N′-tetra(n-octyl)diglycolamide]
SFTb/Gd separation factor ([5]; [1] 0 mM): 2.7 | SFTb/Gd separation factor ([5]; [1] 3 mM): 3.4 | SFTb/Gd separation factor ([5]; [1] 13 mM): 5.4 | SFTb/Gd separation factor ([5]; [1] 25 mM): 5.3 | DLa distribution ratio [6, 14]: 2.52 | DLa distribution ratio ([6]; [1] 3 mM, 0.1 M DGA): 0.21 | DLa distribution ratio ([6]; [1] 13 mM, 0.1 M DGA): 0.05 | DLa distribution ratio ([6]; [1] 25 mM, 0.1 M DGA): 0.05 | DGd distribution ratio ([7]; [1] 0 mM): 386 | DGd distribution ratio ([7]; [1] 3 mM): 164 | DGd distribution ratio ([7]; [1] 13 mM): 19.3 | DGd distribution ratio ([7]; [1] 25 mM): 14.2 | DSm distribution ratio ([8]; [1] 0 mM): 120 | DSm distribution ratio ([8]; [1] 3 mM): 28.1 | DSm distribution ratio ([8]; [1] 13 mM): 2.35 | DSm distribution ratio ([8]; [1] 25 mM): 1.82 | SFNd/Pr separation factor ([9]; [1] 0 mM): 2.2 | SFNd/Pr separation factor ([9]; [1] 3 mM): 2.7 | SFNd/Pr separation factor ([9]; [1] 13 mM): 2.2 | SFNd/Pr separation factor ([9]; [1] 25 mM): 1.8 | SFSm/Nd separation factor ([10]; [1] 0 mM): 6.4 | SFSm/Nd separation factor ([10]; [1] 3 mM): 13 | SFSm/Nd separation factor ([10]; [1] 13 mM): 16 | SFSm/Nd separation factor ([10]; [1] 25 mM): 13 | DNd distribution ratio ([11]; [1] 0 mM): 18.6 | DNd distribution ratio ([11]; [1] 3 mM): 2.18 | DNd distribution ratio ([11]; [1] 13 mM): 0.15 | DNd distribution ratio ([11]; [1] 25 mM): 0.14 | SFDy/Nd separation factor ([12]; [1] 0 mM): 70 | SFDy/Nd separation factor ([12]; [1] 3 mM): 408 | SFDy/Nd separation factor ([12]; [1] 13 mM): 1052 | SFDy/Nd separation factor ([12]; [1] 25 mM): 782 | SFGd/La separation factor ([13]; [1] 0 mM): 153 | SFGd/La separation factor ([13]; [1] 3 mM): 783 | SFGd/La separation factor ([13]; [1] 13 mM): 413 | SFGd/La separation factor ([13]; [1] 25 mM): 308 | extraction of Lns from the aqueous phase into the oil phase ([4]; 0.1 M DGA alone, 14 Lns 0.5 mM each, 1 M HNO3): reduced affinity for light Lns

CCCCCCCCCCCCN(CCCCCCCCCCCC)C(=O)COC1CCCN(CCCCCC)C1=O (stereo not shown) [Ligand 5, N,N-didodecyl-2-((1-hexyl-2-oxopiperidin-3-yl)oxy)acetamide]
SFTb/Gd separation factor ([5]; [1] 0 mM): 3.3 | SFTb/Gd separation factor ([5]; [1] 3 mM): 3.7 | SFTb/Gd separation factor ([5]; [1] 13 mM): 5.1 | SFTb/Gd separation factor ([5]; [1] 25 mM): 5.8 | DLa distribution ratio [6, 14]: 0.18 | DLa distribution ratio ([6]; [1] 3 mM, 0.1 M DGA): 0.12 | DLa distribution ratio ([6]; [1] 13 mM, 0.1 M DGA): 0.08 | DLa distribution ratio ([6]; [1] 25 mM, 0.1 M DGA): 0.06 | DGd distribution ratio ([7]; [1] 0 mM): 23.0 | DGd distribution ratio ([7]; [1] 3 mM): 13.4 | DGd distribution ratio ([7]; [1] 13 mM): 0.98 | DGd distribution ratio ([7]; [1] 25 mM): 0.88 | DSm distribution ratio ([8]; [1] 0 mM): 6.21 | DSm distribution ratio ([8]; [1] 3 mM): 2.53 | DSm distribution ratio ([8]; [1] 13 mM): 0.16 | DSm distribution ratio ([8]; [1] 25 mM): 0.17 | SFNd/Pr separation factor ([9]; [1] 0 mM): 2.0 | SFNd/Pr separation factor ([9]; [1] 3 mM): 1.8 | SFNd/Pr separation factor ([9]; [1] 13 mM): 0.9 | SFNd/Pr separation factor ([9]; [1] 25 mM): 1.0 | SFSm/Nd separation factor ([10]; [1] 0 mM): 7.2 | SFSm/Nd separation factor ([10]; [1] 3 mM): 8.0 | SFSm/Nd separation factor ([10]; [1] 13 mM): 2.0 | SFSm/Nd separation factor ([10]; [1] 25 mM): 2.5 | DNd distribution ratio ([11]; [1] 0 mM): 0.87 | DNd distribution ratio ([11]; [1] 3 mM): 0.32 | DNd distribution ratio ([11]; [1] 13 mM): 0.08 | DNd distribution ratio ([11]; [1] 25 mM): 0.07 | SFDy/Nd separation factor ([12]; [1] 0 mM): 130 | SFDy/Nd separation factor ([12]; [1] 3 mM): 260 | SFDy/Nd separation factor ([12]; [1] 13 mM): 133 | SFDy/Nd separation factor ([12]; [1] 25 mM): 123 | SFGd/La separation factor ([13]; [1] 0 mM): 128 | SFGd/La separation factor ([13]; [1] 3 mM): 109 | SFGd/La separation factor ([13]; [1] 13 mM): 12 | SFGd/La separation factor ([13]; [1] 25 mM): 14

From patent US12662714B2, “Method for separation of adjacent lanthanide elements” (UT-Battelle, LLC, priority 2022, dated 2026)
